Results as given in ChEMBL document CHEMBL1933054, “Structure-based design of PDK1 inhibitors” (Bioorg Med Chem Lett, 2012).
pIC50: −log10 of the molar value.

Assays:
[1] = Oral bioavailability in mouse; format: ADME, organism-based; conditions: in vivo
[2] = Half life in human liver microsomes; format: ADME, Microsome
[3] = target: T1, Receptor-type tyrosine-protein kinase FLT3 (Homo sapiens, UniProt P36888); experiment: Inhibition of Flt3
T1 sequence (P36888 whole entry): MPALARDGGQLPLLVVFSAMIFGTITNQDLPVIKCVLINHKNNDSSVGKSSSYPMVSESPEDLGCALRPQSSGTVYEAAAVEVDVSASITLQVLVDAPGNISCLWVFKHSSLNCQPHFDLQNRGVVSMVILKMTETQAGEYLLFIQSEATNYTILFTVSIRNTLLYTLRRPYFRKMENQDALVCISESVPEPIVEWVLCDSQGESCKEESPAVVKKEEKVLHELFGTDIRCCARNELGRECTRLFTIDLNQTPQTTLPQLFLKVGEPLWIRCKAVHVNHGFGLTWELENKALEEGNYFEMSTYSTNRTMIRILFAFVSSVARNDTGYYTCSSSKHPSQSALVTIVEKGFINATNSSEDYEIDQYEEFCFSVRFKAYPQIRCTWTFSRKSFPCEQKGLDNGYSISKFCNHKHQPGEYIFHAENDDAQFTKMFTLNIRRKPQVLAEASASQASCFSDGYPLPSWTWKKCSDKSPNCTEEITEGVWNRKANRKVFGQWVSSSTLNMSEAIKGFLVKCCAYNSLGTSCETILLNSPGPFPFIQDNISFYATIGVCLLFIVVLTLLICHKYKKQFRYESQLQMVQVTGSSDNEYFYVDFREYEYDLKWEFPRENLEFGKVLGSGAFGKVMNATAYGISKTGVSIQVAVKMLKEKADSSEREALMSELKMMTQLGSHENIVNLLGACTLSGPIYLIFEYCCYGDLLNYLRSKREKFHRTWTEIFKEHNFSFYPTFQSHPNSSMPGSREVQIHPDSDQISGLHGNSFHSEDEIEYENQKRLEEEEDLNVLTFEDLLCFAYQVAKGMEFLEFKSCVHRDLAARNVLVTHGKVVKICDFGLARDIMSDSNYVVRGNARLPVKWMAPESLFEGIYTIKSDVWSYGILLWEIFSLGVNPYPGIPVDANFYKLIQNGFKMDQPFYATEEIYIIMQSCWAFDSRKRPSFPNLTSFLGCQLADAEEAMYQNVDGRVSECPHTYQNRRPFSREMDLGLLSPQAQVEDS

[4] = target: T2, 3-phosphoinositide-dependent protein kinase 1 (Homo sapiens, UniProt O15530); experiment: Inhibition of PDK1 using [gamma33P]-ATP as substrate after 30 mins by scintillation counting
T2 sequence (O15530 whole entry): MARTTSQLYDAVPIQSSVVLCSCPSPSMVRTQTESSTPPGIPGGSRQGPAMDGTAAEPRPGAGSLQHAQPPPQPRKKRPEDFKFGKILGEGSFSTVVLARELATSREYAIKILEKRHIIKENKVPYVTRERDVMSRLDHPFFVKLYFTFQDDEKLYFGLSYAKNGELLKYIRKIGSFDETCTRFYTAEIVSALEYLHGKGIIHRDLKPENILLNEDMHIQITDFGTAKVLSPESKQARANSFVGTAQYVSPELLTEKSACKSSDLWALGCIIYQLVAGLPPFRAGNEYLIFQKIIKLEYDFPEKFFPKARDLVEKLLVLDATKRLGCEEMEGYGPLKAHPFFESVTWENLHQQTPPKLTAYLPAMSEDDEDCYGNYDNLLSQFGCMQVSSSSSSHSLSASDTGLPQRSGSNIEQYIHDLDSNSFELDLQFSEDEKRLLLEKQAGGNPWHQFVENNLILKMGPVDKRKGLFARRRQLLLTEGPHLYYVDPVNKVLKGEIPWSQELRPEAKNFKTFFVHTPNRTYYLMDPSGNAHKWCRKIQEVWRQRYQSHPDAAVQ

[5] = target: Cyclin-dependent kinase 2 (Homo sapiens, UniProt P24941); experiment: Inhibition of CDK2
[6] = target: Tyrosine-protein kinase JAK2 (Homo sapiens, UniProt O60674); experiment: Inhibition of JAK2
Tyrosine-protein kinase JAK2, sequence (O60674 whole entry): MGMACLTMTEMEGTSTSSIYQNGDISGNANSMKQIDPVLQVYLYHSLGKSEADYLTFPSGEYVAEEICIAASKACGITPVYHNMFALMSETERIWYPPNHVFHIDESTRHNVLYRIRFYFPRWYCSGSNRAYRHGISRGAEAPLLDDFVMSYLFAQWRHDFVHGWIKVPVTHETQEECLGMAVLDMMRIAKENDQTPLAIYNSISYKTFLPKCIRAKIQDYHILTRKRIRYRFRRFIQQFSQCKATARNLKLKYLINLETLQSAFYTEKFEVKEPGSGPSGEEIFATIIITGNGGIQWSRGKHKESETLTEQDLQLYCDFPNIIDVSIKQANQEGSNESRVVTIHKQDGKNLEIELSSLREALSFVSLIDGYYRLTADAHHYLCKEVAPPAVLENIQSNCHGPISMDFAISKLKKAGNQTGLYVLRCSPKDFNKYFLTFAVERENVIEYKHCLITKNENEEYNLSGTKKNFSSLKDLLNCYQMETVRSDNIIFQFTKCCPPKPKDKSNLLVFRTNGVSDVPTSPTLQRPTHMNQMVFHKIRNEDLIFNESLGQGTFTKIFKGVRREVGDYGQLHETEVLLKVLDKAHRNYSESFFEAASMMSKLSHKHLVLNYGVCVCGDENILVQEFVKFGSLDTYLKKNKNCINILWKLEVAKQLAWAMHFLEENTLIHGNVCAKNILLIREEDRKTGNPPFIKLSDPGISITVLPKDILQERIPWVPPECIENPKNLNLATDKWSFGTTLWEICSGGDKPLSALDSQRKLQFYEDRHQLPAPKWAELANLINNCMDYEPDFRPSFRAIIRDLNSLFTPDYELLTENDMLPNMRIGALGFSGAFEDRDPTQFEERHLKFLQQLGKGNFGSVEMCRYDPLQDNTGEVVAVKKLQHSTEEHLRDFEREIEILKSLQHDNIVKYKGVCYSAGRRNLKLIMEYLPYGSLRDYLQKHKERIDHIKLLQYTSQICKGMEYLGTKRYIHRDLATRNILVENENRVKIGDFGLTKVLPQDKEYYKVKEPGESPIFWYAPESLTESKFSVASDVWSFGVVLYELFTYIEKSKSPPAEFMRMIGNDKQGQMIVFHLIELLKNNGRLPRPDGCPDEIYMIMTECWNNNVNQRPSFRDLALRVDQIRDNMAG

Row | SMILES | bioavailability [1] [%] | half-life [2] [h] | pIC50 [3] | pIC50 [4] | pIC50 [5] | pIC50 [6]
1 | COc1ccc(-c2nc(Nc3cccc(NC(=O)N4CCCC4)c3)nc3nc[nH]c23)cc1 | 65 | > 1 |  |  |  | 
2 | CN1C/C=C/CCOc2cccc(c2)-c2nc(nc3[nH]cnc23)Nc2cccc(c2)C1 |  |  | 7.24 | 6.41 | 5.39 | 
3 | Cc1cnc2nc1-c1cccc(c1)OCC/C=C/CN(C)Cc1cccc(c1)N2 |  |  | 7.66 | 5.85 | 6.82 | 6.74
4 | CC(C)(C(N)=O)C(=O)NCCCNc1nc(Nc2cccc(NC(=O)N3CCCC3)c2)ncc1Br |  |  |  |  | 5.82 | 
5 | COc1ccc(-c2nc(Nc3cccc(NC(=O)CN)c3)nc3[nH]cnc23)cc1OC |  |  | 6.46 | 7.01 | < 5.00 | 6.48
6 | Oc1ccc(-c2nc(Nc3cccc(Cl)c3)nc3[nH]cnc23)cc1 |  |  | 5.14 | 5.80 | 5.15 | 6.08
